Test results: patent US20230117205A1, “B7-H4 ANTIBODY-DRUG CONJUGATES FOR THE TREATMENT OF CANCER” (SEAGEN INC., priority 2021, published 2023)

System: SKBR3
Test: ADCP with primary monocytes/macrophages
Type: cell-based, human
Conditions: 2 independent donors
Experimental: The B7-H4-expressing cell line SKBR3 and primary monocytes/macrophages were used to evaluate SGN-B7H4V-mediated ADCP. […] Phagocytosis of opsonized cells was assessed by flow cytometry.
SKBR3 tumor cells were fluorescently labeled with PKH26 (PKH26 Red Fluorescent Cell Membrane Labeling Kit, Sigma-Aldrich #PKH26GL-1KT), according to manufacturer instructions: SKBR3 cells were harvested with Versene (Gibco #15040-066) for 10 minutes and washed once with PBS. Cell were resuspended in 1 mL Diluent C (included in the PKH26 Red Fluorescent Cell Membrane Labeling Kit, Sigma-Aldrich #PKH26GL-1KT). In a separate tube, 1 mL Diluent C was mixed with 4 μL PKH26 dye by pipetting up and down. The dye solution was transferred to resuspended cells, quickly mixed by pipetting up and down several times, and incubated at room temperature for 5 minutes. Labeling reaction was stopped by adding 2 mL FBS (0.05-0.2 EU/ml Endotoxin, R&D Systems #S11550H). Cells were then washed once with RPMI 1640 (Gibco #11875-093) containing 10% FBS. Cells were resuspended in PBS at concentration of 0.8×10^6 cells/mL and transferred (300 μL/well) to a 96-well U-bottom plate (Falcon #353227). […] Phagocytosis is reported as the PKH26 geometric mean fluorescence intensity (gMFI) of gated CD14+/CD45+ cells analyzed using Flowjo. […]

Substance: SGN-B7H4V: ADC of fully human IgG1 anti-B7-H4 mAb conjugated to monomethyl auristatin E (MMAE) via a protease-cleavable valine-citrulline linker (vedotin)
- ADCP activity: ADCP activity above that seen with the positive control
